The source made the active and inactive calls.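 The calls were made as follows: active = AC50 no higher than twice the top valid tested dose, with signal falling as dose rises; inconclusive = flat fit with partial inhibition, or a poor-quality fit; inactive = the rest, plus effects in the rising direction.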

One may read the AC50 as the midpoint of the concentration-response curve, whichever way the signal moves.

Sequence of Kelch-like ECH-associated protein 1 (Homo sapiens) (Q14145 whole entry, looked up): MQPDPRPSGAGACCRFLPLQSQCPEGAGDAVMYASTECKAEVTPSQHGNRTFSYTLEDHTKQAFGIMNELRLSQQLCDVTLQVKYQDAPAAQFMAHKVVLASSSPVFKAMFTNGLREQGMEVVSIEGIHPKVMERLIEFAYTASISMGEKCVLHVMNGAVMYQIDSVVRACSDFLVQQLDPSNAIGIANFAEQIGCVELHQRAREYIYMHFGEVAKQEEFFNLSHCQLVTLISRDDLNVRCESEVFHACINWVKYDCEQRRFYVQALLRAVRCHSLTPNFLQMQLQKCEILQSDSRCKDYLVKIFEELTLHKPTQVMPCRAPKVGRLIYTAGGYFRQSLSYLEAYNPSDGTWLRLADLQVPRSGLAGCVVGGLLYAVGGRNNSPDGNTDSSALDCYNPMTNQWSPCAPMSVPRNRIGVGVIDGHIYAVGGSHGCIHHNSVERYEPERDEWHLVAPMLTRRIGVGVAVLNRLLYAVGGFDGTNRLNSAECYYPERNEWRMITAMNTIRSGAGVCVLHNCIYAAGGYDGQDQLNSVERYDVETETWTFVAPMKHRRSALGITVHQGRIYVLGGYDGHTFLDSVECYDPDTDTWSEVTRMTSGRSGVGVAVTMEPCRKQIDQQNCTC

The first experiment concerns the target Kelch-like ECH-associated protein 1 (Homo sapiens) (UniProt Q14145). In words: Keap1 Kelch-Nrf2 peptide binding inhibitors, dose response, biochemical, fluorescence polarization, dry powder, set 3 (AID 651806). The following applies: Keap1 Kelch/FITC-Nrf2 peptide fluorescence polarization. For orientation: Polarisation of emitted light reports the rotation of a fluorescent probe.
Consider `CC(=O)Nc1cc(NS(=O)(=O)c2c(C)cc(C)cc2C)c2ccccc2c1O`, for which the AC50 was > 100 µM (inactive).

For `Cc1ccc(S(=O)(=O)NC(=O)[C@@H]2c3ccccc3CCN2C(=O)[C@@H]2CCCC[C@@H]2C(=O)O)cc1`, the AC50 is > 100 µM (inactive).

On to `O=C(O)C1CCCCC1C(=O)N1CCc2ccccc2C1CN1C(=O)c2ccccc2S1(=O)=O` (stereo unspecified), for which the AC50 was > 100 µM (inactive).

As to `Cc1cc(C)c(S(=O)(=O)Nc2cc(C(C(=O)OC(C)C)C(=O)C(F)(F)F)c(O)c3ccccc23)c(C)c1` (stereo unspecified), the AC50 is 14.7 µM.

`Cc1ccc(S(=O)(=O)Nc2cc(C(C(=O)OC(C)C)C(=O)C(F)(F)F)c(O)c3ccccc23)cc1` (stereo unspecified): the AC50 is > 100 µM (inactive).

As to `O=C(O)C1CCCCC1C(=O)N1CCc2ccccc2C1CN1C(=O)Cc2ccccc2C1=O` (stereo unspecified), the AC50 was > 100 µM (inactive).

As to `Cc1ccccc1S(=O)(=O)Nc1cc(C(C(=O)OC(C)C)C(=O)C(F)(F)F)c(O)c2ccccc12` (stereo unspecified), the AC50 was > 100 µM (inactive).

Turning to `O=C(O)[C@H]1CCCC[C@H]1C(=O)N1CCC2=C(CCCC2)C1CN1C(=O)c2ccccc2C1=O` (stereo partly specified), the AC50 is > 100 µM (inactive).

As for `CC(C)OC(=O)C(C(=O)C(F)(F)F)c1cc(NS(=O)(=O)c2ccccc2)c2ccccc2c1O` (stereo unspecified), the AC50 was > 100 µM (inactive).

The same experiment, now with this note: Keap1 Kelch/FITC-Nrf2 peptide fluorescence polarization; at 12 µM (top of the series).
Take `O=C1c2ccccc2C(=O)N1CC1c2ccccc2CCN1C(=O)Cc1ccccc1` (stereo unspecified): the “activity change, negative = inhibition” value is “inactive”.

Staying with this experiment, now noted: Keap1 Kelch/FITC-Nrf2 peptide fluorescence polarization; at 50 µM (top of the series).
`CCOC(=O)Cc1nc(NS(=O)(=O)c2c(C)cc(C)cc2C)c2ccccc2n1`: the “activity change, negative = inhibition” value is “inactive”.

Consider `O=C1c2ccccc2C(=O)N1C[C@@H]1c2ccccc2CCN1C(=O)OCc1ccccc1`, for which the “activity change, negative = inhibition” value is “inactive”.

Consider `Cc1cc(C)c(S(=O)(=O)Nc2cc(C(C(=O)OCc3ccccc3)C(=O)OCc3ccccc3)c(O)c3ccccc23)c(C)c1`, for which the “activity change, negative = inhibition” value was “inactive”.

With `O=C(O)[C@H]1CCCC[C@H]1C(=O)N1CCc2ccccc2C1` (racemic), the “activity change, negative = inhibition” value was “inactive”.

In the case of `O=C(O)C1CCCCC1C(=O)N1CCc2ccccc2[C@H]1C(=O)NCCc1ccccc1` (stereo partly specified), the “activity change, negative = inhibition” value was “inactive”.

Take `O=C(O)C1CCCCC1C(=O)Nc1ccccc1CN1C(=O)c2ccccc2C1=O` (stereo unspecified): the “activity change, negative = inhibition” value was “inactive”.

On to `O=C(O)C1CCCCC1C(=O)N1CCc2ccccc2[C@H]1C(=O)NC12CC3CC(CC(C3)C1)C2` (stereo partly specified), for which the “activity change, negative = inhibition” value was “inactive”.

In the case of `COC(=O)C(C(=O)OC)c1cc(NS(=O)(=O)c2c(C)cc(C)cc2C)c2ccccc2c1O`, the “activity change, negative = inhibition” value was “inactive”.

`O=C1c2ccccc2C(=O)N1CC1=NCCc2ccccc21`: the “activity change, negative = inhibition” value was “inactive”.

With `Cc1ccc(S(=O)(=O)NC(=O)[C@@H]2c3ccccc3CCN2C(=O)[C@@H]2CCCC[C@@H]2C(=O)O)cc1`, the “activity change, negative = inhibition” value was “inactive”.

`Cc1cc(C)c(S(=O)(=O)Nc2ncnc3ccccc23)c(C)c1`: the “activity change, negative = inhibition” value was “inactive”.

For `O=C1c2ccccc2C(=O)N1C[C@@H]1c2ccccc2CCN1C(=O)C1CCCCC1`, the “activity change, negative = inhibition” value is “inactive”.

For `O=C(O)C1CCCCC1C(=O)NCC1c2ccccc2CCN1C(=O)Cc1ccccc1` (stereo unspecified), the “activity change, negative = inhibition” value is “inactive”.

On to `C=CC(=O)NC[C@@H]1c2ccccc2CCN1C(=O)[C@@H]1CCCC[C@@H]1C(=O)O`, for which the “activity change, negative = inhibition” value was “inactive”.

Regarding `O=C(O)C1CCCCC1C(=O)N1CCc2ccccc2C1c1ccccc1` (stereo unspecified), the “activity change, negative = inhibition” value was “inactive”.

As for `COC(=O)[C@@H]1CCCC[C@@H]1C(=O)N1CCc2ccccc2[C@H]1CN1C(=O)c2ccccc2C1=O`, the “activity change, negative = inhibition” value was “inactive”.

Turning to `O=C(O)CCC(=O)N1CCc2ccccc2C1CN1C(=O)c2ccccc2C1=O` (stereo unspecified), the “activity change, negative = inhibition” value was “inactive”.

In the case of `COC(=O)CNc1nc(NS(=O)(=O)c2c(C)cc(C)cc2C)c2ccccc2n1`, the “activity change, negative = inhibition” value was “inactive”.

As for `O=C(O)[C@H]1CCCC[C@H]1C(=O)N1CCc2ccccc2[C@H]1CNc1nc(Cl)nc2ccccc12`, the “activity change, negative = inhibition” value is “inactive”.

As to `O=C(NC[C@@H]1c2ccccc2CCN1C(=O)[C@@H]1CCCC[C@@H]1C(=O)O)c1ccc(CN2CCOCC2)cc1`, the “activity change, negative = inhibition” value is “inactive”.

For the compound `COC(=O)[C@H]1CCCC[C@H]1C(=O)N1CCc2ccccc2[C@H]1CN1C(=O)c2ccccc2C1=O`, the “activity change, negative = inhibition” value was “inactive”.

`O=C(Oc1cc(CN2C(=O)c3ccccc3C2=O)c2ccccc2[n+]1[O-])c1cccc(Cl)c1`: the “activity change, negative = inhibition” value is “inactive”.

For the compound `O=C(NCCO)c1ccccc1C(=O)NC[C@@H]1c2ccccc2CCN1C(=O)C1CCCCC1C(=O)O` (stereo partly specified), the “activity change, negative = inhibition” value was “inactive”.

As to `COc1ccccc1CCNC(=O)[C@@H]1c2ccccc2CCN1C(=O)C1CCCCC1C(=O)O` (stereo partly specified), the “activity change, negative = inhibition” value was “inactive”.

`O=C(NCCCN1CCOCC1)c1ccccc1C(=O)NC[C@@H]1c2ccccc2CCN1C(=O)C1CCCCC1C(=O)O` (stereo partly specified): the “activity change, negative = inhibition” value was “inactive”.

Take `O=C(O)[C@H]1C2C=CC(C2)[C@H]1C(=O)N1CCc2ccccc2C1CN1C(=O)c2ccccc2C1=O` (stereo partly specified): the “activity change, negative = inhibition” value was “inactive”.

Turning to `C[C@@H](NC(=O)C1CCCC[C@H]1C(=O)O)c1ccccc1` (mixture of isomers), the “activity change, negative = inhibition” value is “inactive”.

With `CCOC(=O)C(C(=O)OCC)c1nc(NS(=O)(=O)c2c(C)cc(C)cc2C)c2ccccc2n1`, the “activity change, negative = inhibition” value was “inactive”.

For the compound `CCOC(=O)C(C(=O)OCC)c1cc(CN2C(=O)c3ccccc3C2=O)c2ccccc2n1`, the “activity change, negative = inhibition” value was “inactive”.

Consider `CCOC(=O)C(C(=O)OCC)c1cc(CNS(=O)(=O)c2ccc(C)cc2C)c2ccccc2n1`, for which the “activity change, negative = inhibition” value is “inactive”.

Turning to `Cc1ccc(S(=O)(=O)NNc2nc(N3CC(O)CC3C(=O)O)nc3ccccc23)cc1` (stereo unspecified), the “activity change, negative = inhibition” value is “inactive”.

Take `Cc1ccc(S(=O)(=O)NNc2nc(NCC(N)=O)nc3ccccc23)cc1`: the “activity change, negative = inhibition” value is “inactive”.

As to `O=C(O)C1CCCCC1C(=O)N1CCc2ccccc2C1CN1C(=O)[C@H]2CCCC[C@H]2C1=O` (stereo partly specified), the “activity change, negative = inhibition” value is “inactive”.

Turning to `O=C(NCCc1ccccc1)c1ccccc1C(=O)NC[C@@H]1c2ccccc2CCN1C(=O)C1CCCCC1C(=O)O` (stereo partly specified), the “activity change, negative = inhibition” value was “inactive”.

For the compound `O=C(O)CCCC(=O)N1CCc2ccccc2C1CN1C(=O)c2ccccc2C1=O` (stereo unspecified), the “activity change, negative = inhibition” value is “inactive”.

As to `COc1ccc(CCN=C2C=C(NS(=O)(=O)c3c(C)cc(C)cc3C)c3ccccc3C2=O)cc1`, the “activity change, negative = inhibition” value was “inactive”.

With `Cc1ccc(S(=O)(=O)NC[C@@H]2c3ccccc3CCN2C(=O)[C@@H]2CCCC[C@@H]2C(=O)O)c(C)c1`, the “activity change, negative = inhibition” value is “inactive”.

Turning to `Cc1cc(C)c(S(=O)(=O)Nc2nc(NCCO)nc3ccccc23)c(C)c1`, the “activity change, negative = inhibition” value was “inactive”.

`NC(=O)c1ccccc1C(=O)NC[C@@H]1c2ccccc2CCN1C(=O)[C@@H]1CCCC[C@@H]1C(=O)O`: the “activity change, negative = inhibition” value was “inactive”.

In the case of `O=C(O)c1ccccc1C(=O)NC[C@@H]1c2ccccc2CCN1C(=O)[C@@H]1CCCC[C@@H]1C(=O)O`, the “activity change, negative = inhibition” value was “inactive”.

In the case of `O=C1c2ccccc2C(=O)N1C[C@H]1NCCc2ccccc21`, the “activity change, negative = inhibition” value was “inactive”.

For the compound `O=S(=O)(Nc1nc(NCC2CCCCC2)nc2ccccc12)c1ccccc1`, the “activity change, negative = inhibition” value was “inactive”.

On to `O=C(O)/C=C\C(=O)N1CCc2ccccc2C1CN1C(=O)c2ccccc2C1=O` (stereo unspecified), for which the “activity change, negative = inhibition” value is “inactive”.

With `O=C(NC[C@@H]1c2ccccc2CCN1C(=O)[C@@H]1CCCC[C@@H]1C(=O)O)c1ccc(CCl)cc1`, the “activity change, negative = inhibition” value is “inactive”.

Turning to `Cc1cc(C)c(S(=O)(=O)Nc2nc(C(C(=O)OC(C)C)C(=O)C(F)(F)F)nc3ccccc23)c(C)c1` (stereo unspecified), the “activity change, negative = inhibition” value was “inactive”.

On to `O=C(O)c1ccccc1C(=O)N1CCc2ccccc2C1CN1C(=O)c2ccccc2C1=O` (stereo unspecified), for which the “activity change, negative = inhibition” value was “inactive”.

For `O=C(O)[C@H]1CCCC[C@H]1C(=O)N1CCc2ccccc2C1CCN1C(=O)c2ccccc2C1=O` (stereo partly specified), the “activity change, negative = inhibition” value is “inactive”.

As to `NC(=O)[C@H]1CCCC[C@H]1C(=O)N1CCc2ccccc2[C@H]1CN1C(=O)c2ccccc2C1=O`, the “activity change, negative = inhibition” value is “inactive”.

Take `O=C(O)[C@H]1CCCC[C@H]1C(=O)N1CCc2ccccc2[C@H]1CNS(=O)(=O)c1ccccc1`: the “activity change, negative = inhibition” value was “inactive”.

With `CC(C)CNc1nc(NS(=O)(=O)c2ccccc2)c2ccccc2n1`, the “activity change, negative = inhibition” value is “inactive”.

`Cc1ccc(S(=O)(=O)NC2=CC(=N[C@@H](C)C(=O)OC(C)(C)C)C(=O)c3ccccc32)c(C)c1`: the “activity change, negative = inhibition” value was “inactive”.

With `O=C(Cc1ccccc1)NC[C@@H]1c2ccccc2CCN1C(=O)[C@@H]1CCCC[C@@H]1C(=O)O`, the “activity change, negative = inhibition” value was “inactive”.

Take `O=C(O)[C@@H]1CCCN1C(=O)N1CCc2ccccc2[C@H]1CN1C(=O)c2ccccc2C1=O`: the “activity change, negative = inhibition” value was “inactive”.

As for `O=C(NC[C@@H]1c2ccccc2CCN1C(=O)[C@@H]1CCCC[C@@H]1C(=O)O)OCC1c2ccccc2-c2ccccc21`, the “activity change, negative = inhibition” value was “inactive”.

With `O=C(O)C1CCCCC1C(=O)N1CCCCC1CN1C(=O)c2ccccc2C1=O` (stereo unspecified), the “activity change, negative = inhibition” value is “inactive”.

For the compound `O=C(O)[C@H]1CCCC[C@H]1C(=O)N1CCC2=C(CCCC2)C1CN1C(=O)c2ccccc2C1=O` (stereo partly specified), the “activity change, negative = inhibition” value was “inactive”.

Turning to `COC(=O)C1CCCCC1C(=O)N1CCc2ccccc2C1CN1C(=O)c2ccccc2C1=O` (stereo unspecified), the “activity change, negative = inhibition” value was “inactive”.

`O=C(O)[C@H]1CCCC[C@H]1C(=O)NC(CN1C(=O)c2ccccc2C1=O)c1ccccc1` (stereo partly specified): the “activity change, negative = inhibition” value was “inactive”.

Turning to `COC(=O)[C@@H]1CCCC[C@@H]1C(=O)N1CCc2ccccc2[C@@H]1CN1C(=O)c2ccccc2C1=O`, the “activity change, negative = inhibition” value was “inactive”.

Consider `C[C@H](NC(=O)C1CCCC[C@H]1C(=O)O)c1ccccc1` (mixture of isomers), for which the “activity change, negative = inhibition” value was “inactive”.

For `Cc1cc(C)c(S(=O)(=O)Nc2nc(N(C)C)nc3ccccc23)c(C)c1`, the “activity change, negative = inhibition” value is “inactive”.
